Measured values as given in US20100240595A1, “Improved Antitumoral Treatments” (PHARMA MAR ,S.A., priority 2007, published 2010).
Starred links: 1 amine or outer side, 2 acyl side, 3 side chain; linkers in the order of their positions; H or OH if unused. Positions of bridges follow the written chain, without caps; N, C: chain ends. Non-standard residues stand in square brackets, D forms with d. Residues, ends and D or L forms follow the SMILES beside them. *: point of attachment. X1 = CC[C@H](C)[C@@H](N[*:1])[C@@H](O)CC(=O)O[C@H](C(=O)[C@H](C)C(=O)[*:2])C(C)C; NMeY = CN[C@@H](Cc1ccc(O)cc1)C(=O)O; dNMeL = CN[C@H](CC(C)C)C(=O)O; Pyruvoyl = CC(=O)C(=O)*

What was measured:
[1] = tested on: MIA PaCa-2 cell line; experiment: In vitro cytotoxicity, MTS/PMS assay, single agents; format: cell-based; conditions: Homo sapiens; MIA PaCa-2, 96 hours exposure, MTS/PMS viability
Experimental: (§1) PANC-1 (ATCC CRL-1469) and MIA PaCa-2 (ATCC CRL-1420) cell lines obtained from ATCC (Rockville, Md.) were used to check the cytotoxicity of Aplidine and Gemcitabine hydrochloride salt in human pancreas carcinoma cell lines. These cell lines were maintained in Dulbecco's modified Eagle medium with 4 mmol/L glutamine containing 10% Fetal Bovine Serum (FBS), and 1% Penicillin/Streptomycin solution, at 37° C. in humidified atmosphere of 5% CO2.
(§2) Four thousand cells/well were plated in a 96/wells tissue culture plate and exposed to different concentrations of Aplidine or Gemcitabine for 96 hours at 37° C. and 5% CO2. At the end of the incubation the viability of the cells was tested with the MTS/PMS assay (Riss T L and Moravec R A, Mol. Biol. Cell, 1992, 3, 184a). Cell viability was correlated to the amount of formazan quantified spectrophotometrically at 450 nm (reference wavelength 670 nm) using a microplate reader (SpectraMax® Plus^384, Molecular Devices, Sunnyvale, Calif.).

[2] = tested on: PANC-1 cell line; experiment: as above; format: cell-based; conditions: Homo sapiens; PANC-1, 96 hours exposure, MTS/PMS viability
Experimental: as §1, §2

[3] = tested on: PANC-1 cells; experiment: Pancreatic cancer xenograft model, tumor volume; format: in vivo, NCR Nu/Nu mice; conditions: median tumor volume
From the text: Pathogen-free NCR Nu/Nu mice, of 5 to 6 weeks old and purchased from Taconic Farms (Germantown, N.Y.), were housed in microisolator cages under specific pathogen-free conditions. The animals were provided autoclaved food and water ad libitum.
Mice were inoculated subcutaneously in the right flank with 0.5×10^7 PANC-1 cells containing 10% matrigel.
As mentioned before, the vehicle used for the administration of Aplidine contained 15% Cremophor EL/15% Ethanol/70% WFI diluted in saline, whereas Gemcitabine was prepared in saline in order to be administered.
Both drugs were administered intra-peritoneally. […] Tumor size and weight of the animals were recorded every other day, starting from the first day of treatment. Tumor volume was calculated according to the formula:
tumor volume (mm^3)=(longer diameter)×[(shorter diameter)^2]/2.
Comparison of the median tumor volume in the treatment groups (T) to the median tumor volume in the control group (C) [T/C] on day 20 was used for evaluation of tumor efficacy. % T/C [T/C×100%] for each treatment is reported in Table 3.

[4] = tested on: AML and ALL samples from pediatric patients; conditions: 5 nM; de novo or relapsed ALL and AML; cited from earlier work

SMILES	IC50 [1] [nM]	IC50 [2] [nM]	% T/C on day 20 ([3]; Aplidine 0.6 mg/kg on day 1 and 8, intra-peritoneally) [%]	In vitro cytotoxic activity [4]	% T/C on day 20 ([3]; Gemcitabine 250 mg/kg on day 1, 4, 8 & 12, intra-peritoneally) [%]
CC[C@H](C)[C@H]1NC(=O)[C@@H](NC(=O)[C@@H](CC(C)C)N(C)C(=O)[C@@H]2CCCN2C(=O)C(C)=O)[C@@H](C)OC(=O)[C@H](Cc2ccc(OC)cc2)N(C)C(=O)[C@@H]2CCCN2C(=O)[C@H](CC(C)C)NC(=O)[C@@H](C)C(=O)[C@H](C(C)C)OC(=O)C[C@@H]1O [Aplidine] (Pyruvoyl-P[dNMeL]T[X1]LP[NMeY](Me); ester 3-C)	1	1	23	cytotoxic activity	
Nc1ccn([C@@H]2O[C@H](CO)[C@@H](O)C2(F)F)c(=O)n1 [Gemcitabine, reference compound]	150	1000			45
